Here are results for 3 molecules from patent US20220008359A1, “COMBINATION ANTI-CANCER PRODUCTS AND METHODS” (priority 2020, published 2022).

The test system of one assay is H1975 cells. Description: Trypan blue cell death assay, H1975 cells (wild type, afatinib- and osimertinib-resistant). Type of assay: cell-based, human. The settings on record: osimertinib-resistant H1975 and H1650 cells, 24 h.
Another assay deals with CD8+ T cells. The assay can be described thus: Viability and effects on CD8+ T cells after 72 hours of exposure. In kind it is cell-based. As to the method:
(§1) In vitro assays designed to assess the viability and effects of GZ17-6.02, GZ17-6.02.02, its metabolites as single agents, and the metabolites in combination effects of CD8+ T cells and CD56+ natural killer cells after 72 hours of exposure. Test agents used included 6.02 (77% Isovanillin+13% Harmine+10% Curcumin), 6.02.02 (77% Isovanillin+13% Harmine+8.5% Curcumin sulfate tetrabutylammonium salt+1.5% Curcumin β-D-glucuronide), Curcumin metabolites combination (85% Curcumin sulfate tetrabutylammonium salt+15% Curcumin β-D-glucuronide), Curcumin metabolites single agents (single agent Curcumin sulfate tetrabutylammonium salt, or single agent Curcumin 3-D-glucuronide).

For assay [1], the system named is CD56+ natural killer cells. The assay can be described thus: Viability and effects on CD56+ natural killer cells after 72 hours of exposure. Type of assay: cell-based. As to the method:
as §1

Description for H1975 cells: Detection of cell death by trypan blue assay. Cells were treated with vehicle control or with drugs alone or in combination for 24 h. At the indicated time points cells were harvested by trypsinization and centrifugation. Cell pellets were resuspended in PBS and mixed with trypan blue agent. Viability was determined microscopically using a hemocytometer. Five hundred cells from randomly chosen fields were counted and the number of dead cells was counted and expressed as a percentage of the total number of cells counted.
H1650, wild type sensitive and afatinib resistant (AR) H1975 and erlotinib resistant (ER) HCC827 cells were treated with vehicle, erlotinib (500 nM), afatinib (500 nM), GZ17-6.02 (2 mM curcumin final) or the drugs in combination for 24 h. […] In a separate study, cells were treated with vehicle, osimertinib (100 nM), GZ17-6.02 (2 mM curcumin final) or the drugs in combination for 24 h.
Osimertinib-resistant H1975 and H1650 cells were generated as described and studied to determine if GZ17-6.02 interacts with pemetrexed to kill NSCLC cells. H1975 and H1650 cells (wild type sensitive and osimertinib resistant (OR)) were treated with vehicle, erlotinib (500 nM), afatinib (500 nM), osimertinib (100 nM), GZ17-6.02 (2 mM curcumin final) or the drugs in combination for 24 h. […]

For `C=CC(=O)Nc1cc(Nc2nccc(-c3cn(C)c4ccccc34)n2)c(OC)cc1N(C)CCN(C)C` [osimertinib, Osimertinib], the “ability to enhance GZ17-6.02 killing” value in the assay with H1975 cells is recorded as “abolished”.

Take `C#Cc1cccc(Nc2ncnc3cc(OCCOC)c(OCCOC)cc23)c1` [erlotinib, Erlotinib]: the “ability to enhance GZ17-6.02 killing” value with H1975 cells is “abolished”.

Consider “Curcumin sulfate tetrabutylammonium salt”, for which the “CD8 + T Cells % of control” value with CD8+ T cells (0.03 μM) is 107.62 % of control; in the assay on CD8+ T cells (0.3 μM), 170.61 % of control; in the assay with CD8+ T cells (3 μM) it was 154.26 % of control; in the assay with CD8+ T cells (30 μM), 143.23 % of control. For the same molecule, the “CD56 + NK Cells % of control” value is listed as 104.14 % of control in assay [1] (0.03 μM), 103.40 % of control in assay [1] (0.3 μM), 110.77 % of control in assay [1] (3 μM) and 107.76 % of control in assay [1] (30 μM).
